Experimental data taken from patent US11884671B2, “Purinone compounds and their use in treating cancer” (ASTRAZENECA AB, priority 2018, dated 2024).

How the values were obtained:
[1] = biological target: Full length human DNAPK protein (Homo sapiens (Human), UniProt P78527); test: DNAPK enzyme potency assay (DNA-PK enz), TR-FRET; type: biochemical; conditions: arithmetic mean of two or more experiments; 18 μM ATP
From the text: The following assays were used to measure the effects of the compounds described herein: a) DNAPK enzyme potency assay; b) DNAPK cellular potency assay. During the description of the assays, generally: • i. The following abbreviations have been used; DMSO=Dimethyl Sulphoxide; DTT=Dithiothreitol; EDTA=Ethylenediaminetetraacetic Acid, TR-FRET=Time Resolved Fluorescence Resonance Energy Transfer, ATP=Adenosine triphosphate, DTT=Dithiothreitol, DNA=Deoxyribonucleic acid, HEPES=(2-hydroxyethyl)-1-piperazineethanesulfonic acid • ii. […] Assay a): DNAPK Enzyme Potency Assay (DNA-PK Enz)
The inhibitory activity of compounds against DNAPK was determined by TR-FRET measuring a fluorescent labelled peptide substrate converting to a phosphorylated product. Fluorescently tagged peptide substrate were purchased from Thermo Fisher Scientific. 12 point half-log compound concentration-response curves, with a top concentration of 100 μM were generated from 10 mM stocks of compound solubilised in DMSO using an Echo 555 (Labcyte Inc., Sunnyvale, CA). All assays were preformed in white Greiner 1536 well low volume plates (Greiner Bio-One, UK), in a total reaction volume of 3 μL and 1% (v/v) final DMSO concentration. Enzymes and substrates were added separately to the compound plates and incubated at room temperature. The kinase reaction was then quenched by the addition of 3 μL of stop buffer. Stopped assay plates were read using a BMG Pherastar. IC50 values were calculated using a Genedata Screener® software (Genedata, Inc., Basel, Switzerland).
Full length human DNAPK protein was purified from HeLa cell extract by ion exchange. Initially DNAPK protein was incubated with compound for 30 minutes at room temperature in reaction buffer (50 mM Hepes pH 7.5, 0.01% Brij-35, 10 mM MgCl2, 1 mM EGTA, 1 mM DTT, […] Calf Thymus DNA). The reaction was then initiated by the addition of ATP and fluorescently tagged peptide substrate (Fluorescein-[…], Thermo Fisher Scientific). […] The reaction was incubated for a further hour and the plates were read on a BMG Pherastar.
Data was analysed and IC50 values were calculated using Genedata Screener® software (Genedata, Inc., Basel, Switzerland).

TTK = TTK (Homo sapiens (Human), UniProt P33981); test: TTK enzyme assay (LanthaScreen Eu Kinase Binding); conditions: arithmetic mean of two or more experiments
TTK, sequence (P33981 whole entry): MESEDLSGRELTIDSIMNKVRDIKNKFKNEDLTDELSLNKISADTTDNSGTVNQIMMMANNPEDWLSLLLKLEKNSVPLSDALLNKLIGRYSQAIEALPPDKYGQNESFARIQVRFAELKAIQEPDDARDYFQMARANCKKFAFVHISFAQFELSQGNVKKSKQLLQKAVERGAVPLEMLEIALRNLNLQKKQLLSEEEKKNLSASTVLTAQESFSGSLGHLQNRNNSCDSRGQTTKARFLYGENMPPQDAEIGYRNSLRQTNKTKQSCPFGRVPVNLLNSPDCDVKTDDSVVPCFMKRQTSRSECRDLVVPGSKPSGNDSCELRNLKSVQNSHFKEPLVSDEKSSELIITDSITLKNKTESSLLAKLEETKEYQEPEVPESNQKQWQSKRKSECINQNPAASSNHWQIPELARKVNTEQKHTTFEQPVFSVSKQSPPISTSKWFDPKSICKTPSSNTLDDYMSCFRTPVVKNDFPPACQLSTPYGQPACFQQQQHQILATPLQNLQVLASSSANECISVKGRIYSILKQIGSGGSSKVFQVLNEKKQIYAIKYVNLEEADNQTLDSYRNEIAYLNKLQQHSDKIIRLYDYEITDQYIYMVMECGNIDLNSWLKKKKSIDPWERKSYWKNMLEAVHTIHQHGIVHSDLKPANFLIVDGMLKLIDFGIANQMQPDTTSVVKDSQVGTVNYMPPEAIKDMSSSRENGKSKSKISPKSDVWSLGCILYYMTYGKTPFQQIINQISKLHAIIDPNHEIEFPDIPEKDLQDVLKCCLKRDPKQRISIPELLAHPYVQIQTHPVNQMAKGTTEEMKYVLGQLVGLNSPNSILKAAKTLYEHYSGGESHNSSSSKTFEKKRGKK

JAK1 = JAK1 (Homo sapiens (Human), UniProt P23458); test: JAK1 enzyme assay (Z'-LYTE); type: biochemical; conditions: 75 μM ATP; arithmetic mean of two or more experiments
JAK1, sequence (P23458 whole entry): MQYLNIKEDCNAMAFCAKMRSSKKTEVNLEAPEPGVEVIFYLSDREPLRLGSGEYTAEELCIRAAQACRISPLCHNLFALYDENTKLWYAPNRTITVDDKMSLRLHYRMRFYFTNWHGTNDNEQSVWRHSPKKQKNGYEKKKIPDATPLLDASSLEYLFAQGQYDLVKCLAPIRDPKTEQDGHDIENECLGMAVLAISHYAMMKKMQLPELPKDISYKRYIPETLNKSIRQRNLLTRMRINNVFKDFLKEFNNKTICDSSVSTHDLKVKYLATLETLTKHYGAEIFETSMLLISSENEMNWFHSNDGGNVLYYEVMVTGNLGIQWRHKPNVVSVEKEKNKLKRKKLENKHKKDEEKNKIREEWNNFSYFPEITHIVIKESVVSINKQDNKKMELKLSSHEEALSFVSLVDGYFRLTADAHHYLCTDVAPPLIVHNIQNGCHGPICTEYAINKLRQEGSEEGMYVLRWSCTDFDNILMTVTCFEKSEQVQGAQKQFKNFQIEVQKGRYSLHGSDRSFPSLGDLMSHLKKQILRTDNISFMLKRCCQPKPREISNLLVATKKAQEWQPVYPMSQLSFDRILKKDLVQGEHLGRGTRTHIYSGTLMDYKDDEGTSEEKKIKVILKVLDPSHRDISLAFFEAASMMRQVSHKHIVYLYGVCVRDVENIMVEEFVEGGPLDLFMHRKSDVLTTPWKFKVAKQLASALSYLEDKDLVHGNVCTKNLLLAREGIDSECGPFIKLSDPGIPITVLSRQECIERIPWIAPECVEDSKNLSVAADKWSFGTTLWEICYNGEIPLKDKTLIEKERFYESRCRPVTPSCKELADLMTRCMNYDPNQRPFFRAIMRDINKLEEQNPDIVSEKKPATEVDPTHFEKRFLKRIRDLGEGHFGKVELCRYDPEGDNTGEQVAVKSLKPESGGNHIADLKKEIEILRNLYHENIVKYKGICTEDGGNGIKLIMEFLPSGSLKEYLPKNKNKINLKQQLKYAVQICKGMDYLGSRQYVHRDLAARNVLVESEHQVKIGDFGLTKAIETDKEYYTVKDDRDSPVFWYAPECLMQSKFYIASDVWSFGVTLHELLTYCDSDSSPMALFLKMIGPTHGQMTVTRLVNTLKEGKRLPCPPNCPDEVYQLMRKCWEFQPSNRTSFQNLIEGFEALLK

Compound	DNA-PK enz pIC50 [1]	TTK enz pIC50 (TTK)	JAK1 enz pIC50 (JAK1)
CC(=O)N1CCC(n2c(=O)n(C)c3cnc(Nc4cc5nccnc5cc4C)nc32)CC1 [Example 2, 9-(1-acetylpiperidin-4-yl)-7-methyl-2-((7-methylquinoxalin-6-yl)amino)-7,9-dihydro-8H-purin-8-one]	9.8	5.8	<5
Cc1cc2ncccc2cc1Nc1ncc2c(n1)n([C@@H]1CCNC[C@@H]1F)c(=O)n2C [Example 38, 9-((3S,4R)-3-fluoropiperidin-4-yl)-7-methyl-2-((7-methylquinolin-6-yl)amino)-7,9-dihydro-8H-purin-8-one]	8.0	<5.1	<5
Cc1cc2nnccc2cc1Nc1ncc2c(n1)n([C@H]1CC[C@H](O)CC1)c(=O)n2C [Example 7, 9-((1r,4r)-4-hydroxycyclohexyl)-7-methyl-2-((7-methylcinnolin-6-yl)amino)-7,9-dihydro-8H-purin-8-one]	>10	6.9	<5
